Four molecules from patent US20010034039A1, “Bioluminescent organism for detecting toxic substances” (priority 2000, published 2001) can be followed below.

For assay [1], the system named is oceanic luminescent bacterium (Vibrio sp. Isolate). As to the kind of experiment: microbe, parasite or virus in culture. It is filed as cell-based. Particulars: read-out: EC50 (decrease luminescence by 50%).
Assay [2] deals with YH9-RC deposited under KCTC 0730BP. Nature of the assay: microbe, parasite or virus in culture. Particulars: Janthinobacterium lividum, read-out: EC50 (decrease luminescence by 50%). It counts as cell-based. How it is done: Toxicity tests for a variety of substances described in the following Table 2 were conducted using YH9-RC deposited under KCTC 0730BP obtained in the Example 1 to calculate EC50 (Effective concentration 50: the effective concentration of tested organism that decrease luminescence by 50%). It was compared with the EC50 value using oceanic luminescent bacterium (Vibrio sp. Isolate) that was most commonly used in a conventional toxicity test. First, the YH9-RC colony was cultured in an R2A broth containing 5 μg/ml of tetracycline (liquid culture medium containing Bacto yeast extract 0.5 wt %, Bacto proteose peptone No. 3 0.5 wt %, Bacto casamino acids 0.5 wt %, Bacto dextrose 0.5 wt %, soluble starch 0.5 wt %, sodium pyruvate 0.5 wt %, potassium phosphate dibasic 0.5 wt %, and magnesium sulfate 0.5 wt %) for 18 hours or more, and then it was sub-cultured in an R2A broth for another 7 to 8 hours, and the aliquot of the fresh culture was used in the toxicity test. In addition, 80 μl of the cell culture liquid, 80 μl of 0.03 wt % aldehyde aqueous solution, and 40 μl of a toxic sample diluted to various concentrations were mixed in a test tube of a luminometer, […]

For another assay, the system named is YH-9. To be noted: YH9 strain. An excerpt:
Then, the YH9 was transformed, and luminescent genes were introduced therein.

Molecules are shown by their SMILES. In brackets after ≈: the same amount, converted by molar mass. Read-outs that look alike come from different tables or passages of the source.

Broadly, the EC50 is the concentration needed to bring the measured effect to its halfway point. `c1ccccc1` [Benzene]: the EC50 in assay [1] (5 min) was 478 µg/mL (≈ 6120 µM); in assay [1] (10 min), 607 µg/mL (≈ 7770 µM); in assay [1] (0.25 h) it was 747 µg/mL (≈ 9570 µM); in assay [2] (5 min), 75.2 µg/mL (≈ 962 µM); in assay [2] (10 min) it was 50.9 µg/mL (≈ 652 µM); in assay [2] (0.25 h), 35.1 µg/mL (≈ 449 µM).
Turning to `Oc1ccccc1` [Phenol], the EC50 amounted to 116 µg/mL (≈ 1230 µM) in assay [1] (5 min); 105 µg/mL (≈ 1120 µM) in assay [1] (10 min); 63.1 µg/mL (≈ 670 µM) in assay [1] (0.25 h); 26.5 µg/mL (≈ 282 µM) in assay [2] (5 min); 12 µg/mL (≈ 128 µM) in assay [2] (10 min); 12.7 µg/mL (≈ 135 µM) in assay [2] (0.25 h). Moreover, in the assay on YH-9, the “MIC for phenol among various Gram-negative isolates” value is “lowest MIC”.
Take `Cc1ccccc1` [Toluene]: the EC50 in assay [1] (5 min) was 87.1 µg/mL (≈ 945 µM); in assay [1] (10 min), 120 µg/mL (≈ 1300 µM); in assay [1] (0.25 h, 15 minutes) it was 142 µg/mL (≈ 1540 µM); in assay [2] (5 min, YH9-RC, 5 minutes) it was 5.61 µg/mL (≈ 60.9 µM); in assay [2] (10 min, YH9-RC, 10 minutes), 5.65 µg/mL (≈ 61.3 µM); in assay [2] (0.25 h, YH9-RC, 15 minutes) it was 6.3 µg/mL (≈ 68.4 µM).
As to `Cc1ccc(C)cc1` [p-xylene], the half-maximal effective concentration (EC50) in assay [1] (5 min) came to 27.4 µg/mL (≈ 258 µM); in assay [1] (10 min) it was 105 µg/mL (≈ 990 µM); in assay [1] (0.25 h, 15 minutes), 63.1 µg/mL (≈ 594 µM); in assay [2] (5 min, YH9-RC, 5 minutes) it was 45.3 µg/mL (≈ 427 µM); in assay [2] (10 min, YH9-RC, 10 minutes), 37.7 µg/mL (≈ 355 µM); in assay [2] (0.25 h, YH9-RC, 15 minutes) it was 49.8 µg/mL (≈ 469 µM).
